How the values were obtained:
Format in all cases: in vivo
[1] = system: male rats of Wistar strain; test: Acquisition of shuttle-box active avoidance behavior (single session test); details: 1 h prior to testing
Protocol: (§1) Behavioral effects of DL-pyroglutamyl-tryptophan (pGlu-Trp) have been studied in male rats of Wistar strain (purchased from Morini, Italy), weighing 130+10 g at the onset of experiments. Animals were kept under light- dark cycle (lights on between 8.00 and 20.00) with standard food and water available ad lib. Animals were injected intraperitoneally (ip) with 10 or 100 mg/kg of pGlu-Trp dissolved in a solution of NaHCO3 1 N and adjusted at pH 7.4 with HC1 0.1 N. Control animals received injection of the vehicle alone. Injections were performed 1 h prior to the behavioral testing. The animals were used only once for the behavioral experiments.
Acquisition of active avoidance behavior was studied in a single session test. The rats were trained to avoid the unconditioned stimulus (US) of a scrambled electrical footshock (0.20 mA) delivered through the grid floor. The conditioned stimulus (CS) was a buzzer presented for 5 sec prior to the US. If no escape occurred within 20 sec of CS/US presentation, the shock was terminated. A maximum of 30 conditioning trials were given with a variable intertrial interval averaging 60 sec. The learning criterion was 5 consecutive conditioned avoidance responses (CARs). For those animals that reached this criterion in less than 30 trials, the remaining trials up to a total of 30 were considered as lARs. Indexes of avoidance behavior were the total number of CARs and the number of learners.

[2] = system: male rats of Wistar strain; test: Open field behavior in a circular open field arena; details: 10 mg/kg ip
Protocol: as §1
Open field behavior was studied in a circular open field arena. Ambulation (number of floor units entered), rearing, grooming and defecation scores were recorded during a 5-min observation session.

[3] = system: male rats of Wistar strain; test: Hot plate test for analgesia; details: 10 mg/kg ip
Protocol: as §1
Hot plate test for analgesia was studied with a circular hot plate ([…]) where the animals were placed singularly.
The latency in sec to the first behavioral reaction to hot pain (licking of paw) was recorded.

SMILES: O=C1CC[C@@H](C(=O)N[C@@H](Cc2c[nH]c3ccccc23)C(=O)O)N1 (racemic) [pGlu-Trp, pyroglutamyltryptophan]
- total number of CARs ([1]; 10 mg/kg ip, controls 14.8+1.50, difference not significant): 12.7+1.99
- number of CARs ([1]; 100 mg/kg ip, controls 14.2+1.47, p<0.02): 19.0+1.21
- percentage of learners ([1]; 100 mg/kg ip, controls 66.6%): 90.9%
- defecation boli [2]: decreased
- Ambulation (number of floor units entered) ([2]; 5-min observation session, controls 94.5+4.7): 78.5+4.4
- grooming ([2]; treated versus control rats): No difference
- rearing ([2]; treated versus control rats): No difference
- analgesic effect (latency to licking of paw) [3]: No analgesic effect
